Data from patent US5914329A, “Dimesylate salts of neuropeptide Y ligands” (Pfizer Inc., priority 1997, dated 1999).
Where a name gives a salt, the structure may show the parent alone.

How the values were obtained:
[1] = Aqueous solubility of salts
[2] = Bioavailability in dogs
[3] = Chemical stability; format: physicochemical
[4] = Bioavailability (species not stated); settings: in words
[5] = Hygroscopicity evaluation at high humidities; format: physicochemical; settings: humidities below 90%

Structure (SMILES): CCOc1cccc(C2(N3CCN(c4ccccc4)CC3)CCC(C)CC2)c1 (stereo not drawn) [dihydrochloride, cis-1-(3-ethoxyphenyl)-1-(4-phenylpiperazin-1-yl)-4-methyl-cyclohexane, reference compound]
- solubility ([1]; water, water solubility): 1 mg/mL
- bioavailability in dogs [2]: 75%
- stability in the solid state ([3]; solid state, in words): unstable

Structure (SMILES): CCOc1cccc(C2(N3CCN(c4ccccc4)CC3)CCC(C)CC2)c1 (stereo not drawn) [compound I, dimesylate salt of cis-1-(3-ethoxyphenyl)-1-(4-phenylpiperazin-1-yl)-4-methyl-cyclohexane]
- solubility ([1]; solubility, dimesylate salt, medium not stated): 31 mg/mL
- bioavailability [4]: good
- stability ([3]; in words): good

Structure (SMILES): CCOc1cccc(C2(N3CCN(c4ccccc4)CC3)CCC(C)CC2)c1 (stereo not drawn) [fumarate salt, cis-1-(3-ethoxyphenyl)-1-(4-phenylpiperazin-1-yl)-4-methyl-cyclohexane, reference compound]
- solubility ([1]; water, solubility in water, in water): 0.04 mg/mL

Structure (SMILES): CCOc1cccc(C2(N3CCN(c4ccccc4)CC3)CCC(C)CC2)c1 (stereo not drawn) [form A, Dimesylate salt of cis-1-(3-ethoxyphenyl)-1-(4-phenylpiperazin-1-yl)-4-methylcyclohexane]
- solubility ([1]; water, Aqueous solubility, isolated form A of the dimesylate salt): 31 mg/mL
- hygroscopicity [5]: non-hygroscopic
- Chemical stability ([3]; 40° C. in 75% RH): no detectable degradation
- Chemical stability ([3]; 70° C., at ambient humidity): no detectable degradation
- Chemical stability ([3]; light box under fluorescent light): no detectable degradation
